The values that follow come from article PMC9174238, “pH- and concentration-dependent supramolecular assembly of a fungal defensin plectasin variant into helical non-amyloid fibrils” (Nature Communications, 2022).

Data set [1] is described as follows: Thioflavin T fluorescence measurements. Type of data set: physicochemical. The settings on record: Gly-HCl pH 2.5; dissolved; c=2 mg/mL; excitation 440±10 nm, emission 490±10 nm. On the procedure:
Plectasin stock solutions were dialyzed against 10 mM acetate buffer pH 5.5. A final concentration of 2 mg/mL (450 µM) was obtained by dilution with the dialysis buffer and ThT was added to a final concentration of 20 µM. The fluorescence was monitored after each cycle at 490 ± 10 nm with excitation at 440 ± 10 nm with a gain of 1000 using FLOUstar Omega multi-mode microplate reader (BMG Labtech). Omega software was used to control the plate reader and export the data. Insulin was fibrillated at 40 °C with agitation (600 rpm) for 150 s every 5 min[79]. Additionally, the fluorescence of a sample containing insulin fibrils at a protein concentration of 2 mg/mL was compared to freshly dialyzed plectasin in 10 mM acetate buffer pH 3.5 and pH 5.5 and a sample diluted into 10 mM acetate buffer pH 5.5 and 10 mM phosphate buffer pH 6.5, equilibrated for 12 h was compared (end-point measurement).

For data set [2] the following is noted: cited from earlier work. From the text: The structure of plectasin is stabilized by three disulfide bridges (C4-C30; C15-C37; C19-C39), which is typical for this type of defensins and leads to high confor ...
Data set [3] is described as follows: pKa by 2D 1H-1H TOCSY NMR pH titration. In kind it is physicochemical. The settings on record: imidazole ring protons, 50 mM phosphate buffer, 298 K. The text has this: 2D ^1H–^1H TOCSY NMR spectra were acquired by sampling the FID for 117 and 14.5 milliseconds by acquiring 1024 × 128 complex data points in the direct and indirect dimensions, respectively. For these ^1H–^1H TOCSY NMR experiments, 16 transients were acquired with an inter-scan relaxation delay of 1 second. All NMR spectra were processed with ample zero filling in all spectral dimensions in Bruker Topspin 3.5 pl7 software and integrated into the same software. Data were plotted in proFit 7 (Quantum Soft). Titration curves were fitted to the Henderson-Hasselbalch equation in proFit 7 as δobs=(δA+10^pKa−pH*δHA)/(1+10^pKa−pH), where δobs is the measured chemical shift, δA is the chemical shift of the deprotonated form and δHA is the chemical shift of the protonated form. The pH of the sample was determined after the measurement.

Data set [4] has as its system female NMRI mice. The settings on record: single intravenous bolus 50 mg/kg, observed 4 days, previously performed, ref ICAAC 2006 poster F2-1166; cited from earlier work. The text has this:
page 11: homeostatic conditions.

Data set [5] has as its target plectasin variant D9S Q14K V36L (PPI42). The experiment in a line: dynamic light scattering; pH series, phosphate buffer above pH 6, 2 mg/mL (450 µM), 25 °C.
The target of data set [6] is His16 (position 16, …). Kind of data set: NMR. The settings on record: 298 K; not stated (50 mM buffer; no added salt mentioned); 50 mM phosphate according to the Fig. 6b caption. Methods: 50 mM phosphate or 50 mM acetate, with the stock dialysed against 10 mM acetate pH 3.5 and diluted into the final buffer.; Folded, disulfide-intact soluble monomer at 250 µM total protein; fibrils forming at higher pH are NMR-invisible.

The target in data set [7] is His18 (position 18, …). The experiment in a line: NMR. The settings on record: 298 K; not stated (50 mM buffer; no added salt mentioned); 50 mM phosphate according to the Fig. 6b caption. Methods: 50 mM phosphate or 50 mM acetate, with the stock dialysed against 10 mM acetate pH 3.5 and diluted into the final buffer.; Folded, disulfide-intact soluble monomer at 250 µM total protein; fibrils forming at higher pH are NMR-invisible.

Where a SMILES comes first, the peptide text is derived from it. Bridges are numbered along the chain shown (N, C = ends). Some results are limits rather than exact numbers.

On to “Insulin: positive control known to form amyloid fibrils upon shaking at 40 °C”, for which, in data set [1], the “Thioflavin T fluorescence (490 nm), end-point” value was found to be 13428.8.

Take `CC[C@H](C)[C@@H]1NC(=O)[C@H](CO)NC(=O)[C@H](CCCCN)NC(=O)[C@@H]2CSSC[C@@H](C(=O)N[C@@H](Cc3ccc(O)cc3)C(=O)O)NC(=O)[C@H](CCCCN)NC(=O)[C@@H]3CSSC[C@H](NC(=O)[C@H](CCC(N)=O)NC(=O)[C@H](CCSC)NC(=O)[C@H](CC(=O)O)NC(=O)[C@H](CC(=O)O)NC(=O)[C@H](CCC(=O)O)NC(=O)[C@H](CC(=O)O)NC(=O)[C@H](Cc4c[nH]c5ccccc45)NC(=O)[C@@H]4CCCN4C(=O)CNC(=O)[C@H](CC(N)=O)NC(=O)[C@@H](NC(=O)CNC(=O)[C@H](Cc4ccccc4)NC(=O)CN)CSSC[C@H](NC(=O)[C@H](Cc4ccc(O)cc4)NC(=O)CNC(=O)CNC(=O)[C@H](CCCCN)NC(=O)[C@H](Cc4ccc(O)cc4)NC(=O)CNC(=O)[C@H](CCCCN)NC1=O)C(=O)N[C@@H](C)C(=O)N[C@@H](CCCCN)C(=O)NCC(=O)NCC(=O)N[C@@H](Cc1ccccc1)C(=O)N[C@@H](C(C)C)C(=O)N3)C(=O)N[C@@H](Cc1c[nH]cn1)C(=O)N[C@@H](CC(N)=O)C(=O)N[C@@H](Cc1c[nH]cn1)C(=O)N2` [plectasin wildtype]: in data set [2], the in vivo half-life entry is reported as “long in vivo half-life”, the serum stability entry is reported as “high serum stability” and the toxicity result is recorded as “low toxicity”.

`CC[C@H](C)[C@@H]1NC(=O)[C@H](CO)NC(=O)[C@H](CCCCN)NC(=O)[C@@H]2CSSC[C@@H](C(=O)N[C@@H](Cc3ccc(O)cc3)C(=O)O)NC(=O)[C@H](CCCCN)NC(=O)[C@@H]3CSSC[C@H](NC(=O)[C@H](CCCCN)NC(=O)[C@H](CCSC)NC(=O)[C@H](CC(=O)O)NC(=O)[C@H](CC(=O)O)NC(=O)[C@H](CCC(=O)O)NC(=O)[C@H](CO)NC(=O)[C@H](Cc4c[nH]c5ccccc45)NC(=O)[C@@H]4CCCN4C(=O)CNC(=O)[C@H](CC(N)=O)NC(=O)[C@@H](NC(=O)CNC(=O)[C@H](Cc4ccccc4)NC(=O)CN)CSSC[C@H](NC(=O)[C@H](Cc4ccc(O)cc4)NC(=O)CNC(=O)CNC(=O)[C@H](CCCCN)NC(=O)[C@H](Cc4ccc(O)cc4)NC(=O)CNC(=O)[C@H](CCCCN)NC1=O)C(=O)N[C@@H](C)C(=O)N[C@@H](CCCCN)C(=O)NCC(=O)NCC(=O)N[C@@H](Cc1ccccc1)C(=O)N[C@@H](CC(C)C)C(=O)N3)C(=O)N[C@@H](Cc1c[nH]cn1)C(=O)N[C@@H](CC(N)=O)C(=O)N[C@@H](Cc1c[nH]cn1)C(=O)N2` [PPI42] (H-GFGCNGPWSEDDMKCHNHCKSIKGYKGGYCAKGGFLCKCY-OH; disulfide 4-30, 15-37, 19-39): in data set [3], the “pKa for (H16)” value was 4.4 and the “pKa for (H18)” value came to 6.4. In data set [4], the “Maximum Tolerated Dose (MTD)” value was above 50 mg/kg and the “No Observed Adverse Effect Level (NOAEL)” value is on record as above 50 mg/kg.

Regarding “plectasin variant D9S Q14K V36L (PPI42) (peptide)”, in data set [5], the fraction of medium-sized oligomers and fibrils (% mass) was below 2.5 % mass.

GFGCNGPWSEDDMKCHNHCKSIKGYKGGYCAKGGFLCKCY: the pKa result is listed as “around 4.4” in data set [6] and “around 6.4” in data set [7].
